This note sets out measurements from ChEMBL document CHEMBL1649076, “Discovery of 5-chloro-N2-[(1S)-1-(5-fluoropyrimidin-2-yl)ethyl]-N4-(5-methyl-1H-pyrazol-3-yl)pyrimidine-2,4-diamine (AZD1480) as a novel inhibitor of the Jak/Stat pathway” (J Med Chem, 2011).

One experiment has as its system BaF3. Description: Antitumor activity against mouse BA/F3 cells expressing Tel-JAK2-luc xenografted in NCr mouse assessed as reduction of bioluminescent signal at 50 mg/kg, po bid measured on day 9 post-tumor cell implantation relative to control. In kind it is functional.
Experiment [1] deals with Mus musculus. Description: Antitumor activity against mouse BA/F3 cells expressing Tel-JAK2 xenografted in NCr mouse assessed as reduction of phosphorylated Stat5 level in spleen at 30 mg/kg, po after 12 hrs by Western blotting. In kind it is functional, organism-based. Also on record: dose 30 mg/kg. As to conditions: BaF3. Background: Immunoblotting shows a protein as a band on a membrane.

Experiment [2] has as its system Mus musculus. Description: Antitumor activity against mouse BA/F3 cells expressing Tel-JAK2 xenografted in NCr mouse assessed as reduction of phosphorylated Stat5 level in spleen at 10 mg/kg, po after 12 hrs by Western blotting. It counts as functional, organism-based. Set-up: dose 10 mg/kg. Conditions: BaF3.
The test system of experiment [3] is Mus musculus. Description: Antitumor activity against mouse BA/F3 cells expressing Tel-JAK2 xenografted in po dosed NCr mouse assessed as reduction of phosphorylated Stat5 level in spleen by Western blotting. Conditions: BaF3. It counts as functional, organism-based.
For a further experiment, the system named is SW-620. The experiment in a line: Cell cycle arrest in human SW620 cells assessed as accumulation at G2/M phase at 3.3 uM after 24 hrs by flow cytometry. It counts as functional, cell-based. In general terms: In flow cytometry, cells or beads pass a laser one at a time.
Experiment [4] has as its target Signal transducer and activator of transcription 3 (Homo sapiens) (UniProt P40763). As to conditions: HEL, 0.3 uM.
Description: Inhibition of Stat3 phosphorylation in human HEL cells at 0.3 uM after 5 mins by Western blotting
In experiment [5] the target is T1, Signal transducer and activator of transcription 5A (Homo sapiens) (UniProt P42229).
T1 sequence (whole entry): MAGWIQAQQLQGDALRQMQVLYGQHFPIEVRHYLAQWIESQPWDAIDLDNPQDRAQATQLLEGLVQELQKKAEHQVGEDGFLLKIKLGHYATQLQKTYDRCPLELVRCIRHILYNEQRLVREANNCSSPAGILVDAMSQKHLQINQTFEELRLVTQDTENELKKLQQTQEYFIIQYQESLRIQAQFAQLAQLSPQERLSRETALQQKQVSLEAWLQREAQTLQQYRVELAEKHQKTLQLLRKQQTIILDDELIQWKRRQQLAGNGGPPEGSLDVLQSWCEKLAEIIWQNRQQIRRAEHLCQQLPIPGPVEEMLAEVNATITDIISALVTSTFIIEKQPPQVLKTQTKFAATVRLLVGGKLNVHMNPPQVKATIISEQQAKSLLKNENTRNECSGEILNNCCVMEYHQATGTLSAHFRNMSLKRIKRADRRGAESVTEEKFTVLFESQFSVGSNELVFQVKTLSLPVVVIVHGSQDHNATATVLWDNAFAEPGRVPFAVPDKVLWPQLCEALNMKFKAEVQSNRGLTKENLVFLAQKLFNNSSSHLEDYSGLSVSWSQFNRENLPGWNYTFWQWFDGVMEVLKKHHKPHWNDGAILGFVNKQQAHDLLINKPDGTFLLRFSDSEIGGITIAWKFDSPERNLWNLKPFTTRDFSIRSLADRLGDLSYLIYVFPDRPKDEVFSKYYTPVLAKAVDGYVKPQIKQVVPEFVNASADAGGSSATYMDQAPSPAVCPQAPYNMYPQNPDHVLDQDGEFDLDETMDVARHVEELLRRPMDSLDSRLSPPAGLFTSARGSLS
As to conditions: HEL, 0.3 uM.
Description: Inhibition of Stat5 phosphorylation in human HEL cells at 0.3 uM after 5 mins by Western blotting

Activity calls are given as the source filed them. No cut-off for these calls is given here.

Signal transducer and activator of transcription 3 (Homo sapiens), sequence (P40763 whole entry): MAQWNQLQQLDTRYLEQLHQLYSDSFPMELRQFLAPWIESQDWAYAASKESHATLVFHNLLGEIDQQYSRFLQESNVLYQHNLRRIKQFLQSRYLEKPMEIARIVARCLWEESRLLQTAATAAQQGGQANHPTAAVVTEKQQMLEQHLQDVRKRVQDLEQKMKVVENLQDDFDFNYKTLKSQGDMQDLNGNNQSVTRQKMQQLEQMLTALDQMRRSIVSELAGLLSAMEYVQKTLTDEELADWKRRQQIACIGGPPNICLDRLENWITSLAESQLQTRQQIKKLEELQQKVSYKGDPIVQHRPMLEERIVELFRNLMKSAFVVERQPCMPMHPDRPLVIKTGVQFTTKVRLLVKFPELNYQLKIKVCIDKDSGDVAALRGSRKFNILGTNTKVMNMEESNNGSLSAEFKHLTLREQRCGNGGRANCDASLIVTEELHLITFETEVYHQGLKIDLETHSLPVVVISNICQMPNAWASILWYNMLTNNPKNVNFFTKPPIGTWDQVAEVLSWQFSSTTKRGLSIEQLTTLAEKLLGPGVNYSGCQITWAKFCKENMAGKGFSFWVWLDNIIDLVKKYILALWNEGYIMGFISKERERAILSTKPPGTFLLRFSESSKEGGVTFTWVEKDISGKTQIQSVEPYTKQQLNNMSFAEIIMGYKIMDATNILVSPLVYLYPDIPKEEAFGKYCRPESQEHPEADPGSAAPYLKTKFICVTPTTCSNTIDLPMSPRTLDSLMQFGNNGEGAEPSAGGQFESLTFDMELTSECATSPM

`Cc1cc(Nc2nc(N[C@@H](C)c3ncc(F)cn3)ncc2Cl)[nH]n1`: the Activity result in the experiment on BaF3 and in the experiment on Mus musculus [3] was “Dose-dependent effect” in each case. Further, the result in the experiment with Mus musculus [1] and in the experiment on SW-620 was Active. In the experiment on Mus musculus [2], the outcome was inactive. For the same compound, the inhibition entry in experiment [4] and in experiment [5] was “Active” in each case.
